The target in experiment [1] is Histidine biosynthesis bifunctional protein HisB (Escherichia coli O26:H11 str. CFSAN001629, UniProt P06987). Briefly: (§1) Inhibition of Escherichia coli imidazoleglycerol phosphate dehydratase using imidazole glycerol phosphate as substrate incubated for 30 min prior to substrate addition measured for 16 min by spectrophotometric analysis.
Experiment [2] deals with Histidine biosynthesis bifunctional protein HisB (Escherichia coli O26:H11 str. CFSAN001629) (UniProt P06987). Described as §1.
Histidine biosynthesis bifunctional protein HisB (Escherichia coli O26:H11 str. CFSAN001629), sequence (P06987 whole entry): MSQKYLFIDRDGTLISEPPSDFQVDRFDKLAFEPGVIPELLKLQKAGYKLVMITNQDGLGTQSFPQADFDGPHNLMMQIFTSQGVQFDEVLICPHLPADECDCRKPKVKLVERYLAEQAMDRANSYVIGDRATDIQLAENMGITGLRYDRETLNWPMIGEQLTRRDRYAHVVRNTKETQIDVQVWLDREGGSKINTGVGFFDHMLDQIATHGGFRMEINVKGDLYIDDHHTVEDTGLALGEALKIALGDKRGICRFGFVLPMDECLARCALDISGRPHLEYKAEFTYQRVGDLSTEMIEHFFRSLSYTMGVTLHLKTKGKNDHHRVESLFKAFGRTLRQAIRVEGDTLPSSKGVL

The source made the active and inactive calls. The rule behind the calls is not given here.

Histidine biosynthesis bifunctional protein HisB, sequence (P06987 whole entry): as above

Regarding `CCOC(=O)c1[nH]c(C=O)c(C(=O)OCC)c1CC`, the half-maximal inhibitory concentration (IC50) in experiment [1] is 5.6 µM. In turn, `COC(=O)c1[nH]c(C=O)c(C(=O)OC)c1C(C)C` registered an IC50 in experiment [1] of 8.3 µM. On the same count and under the same terms, next, `CCOC(=O)c1[nH]c(C=O)c(C)c1C`: 17.6 µM; `CCc1c(C=O)[nH]c(C(=O)OCc2ccccc2)c1C`: 24 µM. Still for that read-out and setting: the same measure for `CCOC(=O)c1[nH]c(C=O)c(C(=O)OCC)c1C`: 5.1 µM. Take `CCOC(=O)c1[nH]c(C)c(C(=O)OC)c1C`: the inhibition result in experiment [2] was “inactive”. The molecule `CCOC(=O)CCc1c(C(=O)OCC)[nH]c(C=O)c1CC(=O)OCC` came in with a half-maximal inhibitory concentration (IC50) in experiment [1] of 12.6 µM. On the same count and under the same terms, the same measure for `Cc1c(C=O)[nH]c(C(=O)OCc2ccccc2)c1C`: 8.9 µM. Turning to `Cc1c(C=O)[nH]c(C=O)c1C`, in experiment [1], the midpoint of inhibition, the IC50, lay at 7.1 µM. With `CCOC(=O)c1[nH]c(C=O)cc1C`, 9.2 µM corresponded to half-maximal inhibition in experiment [1] (IC50). On to `O=Cc1[nH]c(C(=O)OCc2ccccc2)c(Cc2ccccc2)c1Cc1ccccc1`, for which, in experiment [1], the midpoint of inhibition, the IC50, lay at 4 µM.

Values taken from ChEMBL document CHEMBL3045967, “Discovery of imidazole glycerol phosphate dehydratase inhibitors through 3-D database searching” (Bioorg Med Chem Lett, 2002).
